According to the CheMixHub ionic liquid set:
“And” between values parts separate entries of the source, which are not always exact repeats. Equal values may be shown once. ± gives the uncertainty stated by the source.

Assay: xn = mol fraction of the nth substance listed
Details: 101.3 kPa

In the case of `CCCC[N+]1(C)CCCCC1.F[P-](F)(F)(F)(F)F` + CCCC[n+]1cccc(C)c1.F[P-](F)(F)(F)(F)F + CCCC[N+]1(C)CCCC1.F[P-](F)(F)(F)(F)F, the viscosity (298.15 K, x2 = 0.4, x1 = 0.24) is reported as 1666 ± 82 mPa·s and 1686 ± 230 mPa·s, the viscosity (298.15 K, x2 = 0.4, x1 = 0.3) is reported as 1857 ± 94 mPa·s and the viscosity (298.15 K, x2 = 0.4, x1 = 0.36) is reported as 2084 ± 110 mPa·s. It also gave a viscosity (298.15 K, x2 = 0.4, x1 = 0.42) of 2332 ± 120 mPa·s, a viscosity (298.15 K, x2 = 0.4, x1 = 0.48) of 2615 ± 140 mPa·s and a viscosity (298.15 K, x2 = 0.4, x1 = 0.54) of 2945 ± 170 mPa·s. For the same compound, the viscosity (303.15 K, x2 = 0.4, x1 = 0.06) was 794 ± 33 mPa·s, the viscosity (303.15 K, x2 = 0.4, x1 = 0.12) was 916 ± 39 mPa·s and the viscosity (303.15 K, x2 = 0.4, x1 = 0.18) was 964 ± 42 mPa·s. The viscosity (303.15 K, x2 = 0.4, x1 = 0.24) was 1130 ± 52 mPa·s and 1143 ± 130 mPa·s, the viscosity (303.15 K, x2 = 0.4, x1 = 0.3) was 1248 ± 59 mPa·s and the viscosity (303.15 K, x2 = 0.4, x1 = 0.36) was 1390 ± 68 mPa·s. For the same compound, the viscosity (303.15 K, x2 = 0.4, x1 = 0.42) was 1544 ± 77 mPa·s, the viscosity (303.15 K, x2 = 0.4, x1 = 0.48) was 1714 ± 87 mPa·s and the viscosity (303.15 K, x2 = 0.4, x1 = 0.54) was 1917 ± 100 mPa·s. For the same compound, the viscosity (308.15 K, x2 = 0.3, x1 = 0.28) was 964 ± 96 mPa·s, the viscosity (308.15 K, x2 = 0.4, x1 = 0.06) was 568 ± 22 mPa·s and the viscosity (308.15 K, x2 = 0.4, x1 = 0.12) was 648 ± 26 mPa·s. For the same compound, the viscosity (308.15 K, x2 = 0.4, x1 = 0.18) was 680 ± 28 mPa·s, the viscosity (308.15 K, x2 = 0.4, x1 = 0.24) was 783 ± 33 mPa·s and 791 ± 72 mPa·s and the viscosity (308.15 K, x2 = 0.4, x1 = 0.3) was 859 ± 37 mPa·s. It also gave a viscosity (308.15 K, x2 = 0.4, x1 = 0.36) of 948 ± 42 mPa·s, a viscosity (308.15 K, x2 = 0.4, x1 = 0.42) of 1045 ± 48 mPa·s and a viscosity (308.15 K, x2 = 0.4, x1 = 0.48) of 1152 ± 54 mPa·s. It also gave a viscosity (308.15 K, x2 = 0.4, x1 = 0.54) of 1278 ± 61 mPa·s, a viscosity (308.15 K, x2 = 0.5, x1 = 0.2) of 648 ± 54 mPa·s and a viscosity (308.15 K, x2 = 0.6, x1 = 0.16) of 534 ± 40 mPa·s. The viscosity (313.15 K, x2 = 0.3, x1 = 0.28) was 684 ± 57 mPa·s, the viscosity (313.15 K, x2 = 0.4, x1 = 0.06) was 413 ± 15 mPa·s and the viscosity (313.15 K, x2 = 0.4, x1 = 0.12) was 467 ± 17 mPa·s. For the same compound, the viscosity (313.15 K, x2 = 0.4, x1 = 0.18) was 488 ± 18 mPa·s, the viscosity (313.15 K, x2 = 0.4, x1 = 0.24) was 556 ± 21 mPa·s and 561 ± 42 mPa·s and the viscosity (313.15 K, x2 = 0.4, x1 = 0.3) was 606 ± 24 mPa·s. The viscosity (313.15 K, x2 = 0.4, x1 = 0.36) was 664 ± 27 mPa·s, the viscosity (313.15 K, x2 = 0.4, x1 = 0.42) was 727 ± 30 mPa·s and the viscosity (313.15 K, x2 = 0.4, x1 = 0.48) was 795 ± 34 mPa·s. For the same compound, the viscosity (313.15 K, x2 = 0.4, x1 = 0.54) was 875 ± 38 mPa·s, the viscosity (313.15 K, x2 = 0.5, x1 = 0.2) was 465 ± 32 mPa·s and the viscosity (313.15 K, x2 = 0.6, x1 = 0.16) was 385 ± 24 mPa·s. The viscosity (313.15 K, x2 = 0.7, x1 = 0.12) was 325 ± 19 mPa·s, the viscosity (318.15 K, x2 = 0.2, x1 = 0.32) was 596 ± 45 mPa·s and the viscosity (318.15 K, x2 = 0.3, x1 = 0.28) was 495 ± 35 mPa·s. It also gave a viscosity (318.15 K, x2 = 0.4, x1 = 0.06) of 306 ± 10 mPa·s, a viscosity (318.15 K, x2 = 0.4, x1 = 0.12) of 344 ± 12 mPa·s and a viscosity (318.15 K, x2 = 0.4, x1 = 0.18) of 358 ± 12 mPa·s. For the same compound, the viscosity (318.15 K, x2 = 0.4, x1 = 0.24) was 404 ± 14 mPa·s and 407 ± 26 mPa·s, the viscosity (318.15 K, x2 = 0.4, x1 = 0.3) was 437 ± 16 mPa·s and the viscosity (318.15 K, x2 = 0.4, x1 = 0.36) was 476 ± 18 mPa·s. It also gave a viscosity (318.15 K, x2 = 0.4, x1 = 0.42) of 518 ± 20 mPa·s, a viscosity (318.15 K, x2 = 0.4, x1 = 0.48) of 563 ± 22 mPa·s and a viscosity (318.15 K, x2 = 0.4, x1 = 0.54) of 615 ± 24 mPa·s. The viscosity (318.15 K, x2 = 0.5, x1 = 0.2) was 340 ± 20 mPa·s, the viscosity (318.15 K, x2 = 0.6, x1 = 0.16) was 284 ± 15 mPa·s and the viscosity (318.15 K, x2 = 0.7, x1 = 0.12) was 241 ± 12 mPa·s. For the same compound, the viscosity (318.15 K, x2 = 0.8, x1 = 0.08) was 206 ± 9 mPa·s, the viscosity (323.15 K, x2 = 0.2, x1 = 0.32) was 439 ± 28 mPa·s and the viscosity (323.15 K, x2 = 0.3, x1 = 0.28) was 365 ± 22 mPa·s. For the same compound, the viscosity (323.15 K, x2 = 0.4, x1 = 0.06) was 232 ± 7 mPa·s, the viscosity (323.15 K, x2 = 0.4, x1 = 0.12) was 258 ± 8 mPa·s and the viscosity (323.15 K, x2 = 0.4, x1 = 0.18) was 268 ± 8 mPa·s. For the same compound, the viscosity (323.15 K, x2 = 0.4, x1 = 0.24) was 300 ± 10 mPa·s and 302 ± 16 mPa·s, the viscosity (323.15 K, x2 = 0.4, x1 = 0.3) was 323 ± 11 mPa·s and the viscosity (323.15 K, x2 = 0.4, x1 = 0.36) was 349 ± 12 mPa·s. The viscosity (323.15 K, x2 = 0.4, x1 = 0.42) was 378 ± 13 mPa·s, the viscosity (323.15 K, x2 = 0.4, x1 = 0.48) was 408 ± 14 mPa·s and the viscosity (323.15 K, x2 = 0.4, x1 = 0.54) was 444 ± 16 mPa·s. For the same compound, the viscosity (323.15 K, x2 = 0.5, x1 = 0.2) was 253 ± 12 mPa·s, the viscosity (323.15 K, x2 = 0.6, x1 = 0.16) was 213 ± 9 mPa·s and the viscosity (323.15 K, x2 = 0.7, x1 = 0.12) was 182 ± 7 mPa·s. The viscosity (323.15 K, x2 = 0.8, x1 = 0.08) was 157 ± 6 mPa·s, the viscosity (323.15 K, x2 = 0.9, x1 = 0.04) was 136 ± 5 mPa·s and the viscosity (328.15 K, x2 = 0.2, x1 = 0.32) was 329 ± 18 mPa·s. The viscosity (328.15 K, x2 = 0.3, x1 = 0.28) was 274 ± 14 mPa·s, the viscosity (328.15 K, x2 = 0.4, x1 = 0.06) was 178 ± 5 mPa·s and the viscosity (328.15 K, x2 = 0.4, x1 = 0.12) was 197 ± 6 mPa·s. The viscosity (328.15 K, x2 = 0.4, x1 = 0.18) was 204 ± 6 mPa·s, the viscosity (328.15 K, x2 = 0.4, x1 = 0.24) was 227 ± 7 mPa·s and 229 ± 10 mPa·s and the viscosity (328.15 K, x2 = 0.4, x1 = 0.3) was 243 ± 7 mPa·s. For the same compound, the viscosity (328.15 K, x2 = 0.4, x1 = 0.36) was 261 ± 8 mPa·s, the viscosity (328.15 K, x2 = 0.4, x1 = 0.42) was 281 ± 9 mPa·s and the viscosity (328.15 K, x2 = 0.4, x1 = 0.48) was 302 ± 10 mPa·s. It also gave a viscosity (328.15 K, x2 = 0.4, x1 = 0.54) of 327 ± 11 mPa·s, a viscosity (328.15 K, x2 = 0.5, x1 = 0.2) of 192 ± 8 mPa·s and a viscosity (328.15 K, x2 = 0.6, x1 = 0.16) of 163 ± 6 mPa·s. The viscosity (328.15 K, x2 = 0.7, x1 = 0.12) was 140 ± 5 mPa·s, the viscosity (328.15 K, x2 = 0.8, x1 = 0.08) was 121 ± 4 mPa·s and the viscosity (328.15 K, x2 = 0.9, x1 = 0.04) was 106 ± 3 mPa·s. For the same compound, the viscosity (333.15 K, x2 = 0.2, x1 = 0.32) was 250 ± 12 mPa·s, the viscosity (333.15 K, x2 = 0.3, x1 = 0.28) was 210 ± 9 mPa·s and the viscosity (333.15 K, x2 = 0.4, x1 = 0.06) was 139 ± 4 mPa·s. The viscosity (333.15 K, x2 = 0.4, x1 = 0.12) was 153 ± 4 mPa·s, the viscosity (333.15 K, x2 = 0.4, x1 = 0.18) was 158 ± 4 mPa·s and the viscosity (333.15 K, x2 = 0.4, x1 = 0.24) was 175 ± 5 mPa·s and 176 ± 7 mPa·s. The viscosity (333.15 K, x2 = 0.4, x1 = 0.3) was 186 ± 5 mPa·s, the viscosity (333.15 K, x2 = 0.4, x1 = 0.36) was 199 ± 6 mPa·s and the viscosity (333.15 K, x2 = 0.4, x1 = 0.42) was 214 ± 6 mPa·s. It also gave a viscosity (333.15 K, x2 = 0.4, x1 = 0.48) of 228 ± 7 mPa·s, a viscosity (333.15 K, x2 = 0.4, x1 = 0.54) of 246 ± 8 mPa·s and a viscosity (333.15 K, x2 = 0.5, x1 = 0.2) of 149 ± 5 mPa·s.
